Experimental data from ChEMBL document CHEMBL4138146, “A Schmidt rearrangement-mediated synthesis of novel tetrahydro-benzo[1,4]diazepin-5-ones as potential anticancer and antiprotozoal agents” (Eur J Med Chem, 2017).

Experiments:
Format in all cases: functional
KM12 [1] = assay: Growth inhibition of human KM12 cells assessed as cell growth at 10^-4 M incubated for 48 hrs by sulforhodamine B assay relative to control; conditions: KM12, 48 h, read-out: Activity
NCI-H322M = assay: Growth inhibition of human NCI-H322M cells assessed as cell growth at 10^-8 M incubated for 48 hrs by sulforhodamine B assay relative to control; conditions: read-out: Activity
SNB-75 [2] = assay: Growth inhibition of human SNB75 cells assessed as cell growth at 10^-5 M incubated for 48 hrs by sulforhodamine B assay relative to control; conditions: SNB-75, 48 h, read-out: Activity
SF-539 = assay: Growth inhibition of human SF539 cells assessed as cell growth at 10^-6 M incubated for 48 hrs by sulforhodamine B assay relative to control; conditions: SF-539, 48 h, read-out: Activity
MCF7 = assay: Growth inhibition of human MCF7 cells assessed as cell growth at 10^-6 M incubated for 48 hrs by sulforhodamine B assay relative to control; conditions: MCF7, 48 h, read-out: Activity
SW-620 = assay: Growth inhibition of human SW620 cells assessed as cell growth at 10^-6 M incubated for 48 hrs by sulforhodamine B assay relative to control; conditions: SW-620, 48 h, read-out: Activity
Malme-3M [3] = assay: Growth inhibition of human MALME-3M cells assessed as cell growth at 10^-4 M incubated for 48 hrs by sulforhodamine B assay relative to control; conditions: read-out: Activity
NCI-H460 [4] = assay: Growth inhibition of human NCI-H460 cells assessed as cell growth at 10^-5 M incubated for 48 hrs by sulforhodamine B assay relative to control; conditions: NCI-H460, 48 h, read-out: Activity
OVCAR-3 = assay: Growth inhibition of human OVCAR3 cells assessed as cell growth at 10^-4 M incubated for 48 hrs by sulforhodamine B assay relative to control; conditions: OVCAR-3, 48 h, read-out: Activity
BT-549 = assay: Growth inhibition of human BT549 cells assessed as cell growth at 10^-7 M incubated for 48 hrs by sulforhodamine B assay relative to control; conditions: BT-549, 48 h, read-out: Activity
SN12C = assay: Growth inhibition of human SN12C cells assessed as cell growth at 10^-8 M incubated for 48 hrs by sulforhodamine B assay relative to control; conditions: read-out: Activity
SK-MEL-5 [5] = assay: Growth inhibition of human SK-MEL-5 cells assessed as cell growth at 10^-7 M incubated for 48 hrs by sulforhodamine B assay relative to control; conditions: SK-MEL-5, 48 h, read-out: Activity
KM12 [6] = assay: Growth inhibition of human KM12 cells assessed as cell growth at 10^-5 M incubated for 48 hrs by sulforhodamine B assay relative to control; conditions: KM12, 48 h, read-out: Activity
CAKI-1 = assay: Growth inhibition of human Caki1 cells assessed as cell growth at 10^-5 M incubated for 48 hrs by sulforhodamine B assay relative to control; conditions: CAKI-1, 48 h, read-out: Activity
MDA-MB-435 [7] = assay: Growth inhibition of human MDA-MB-435 cells assessed as cell growth at 10^-5 M incubated for 48 hrs by sulforhodamine B assay relative to control; conditions: MDA-MB-435, 48 h, read-out: Activity
MDA-MB-435 [8] = assay: Growth inhibition of human MDA-MB-435 cells assessed as cell growth at 10^-4 M incubated for 48 hrs by sulforhodamine B assay relative to control; conditions: MDA-MB-435, 48 h, read-out: Activity
Malme-3M [9] = assay: Growth inhibition of human MALME-3M cells assessed as cell growth at 10^-7 M incubated for 48 hrs by sulforhodamine B assay relative to control; conditions: read-out: Activity
NCI/ADR-RES = assay: Growth inhibition of human NCI/ADR-RES cells assessed as cell growth at 10^-7 M incubated for 48 hrs by sulforhodamine B assay relative to control; conditions: read-out: Activity
IGROV-1 [10] = assay: Growth inhibition of human IGROV1 cells assessed as cell growth at 10^-6 M incubated for 48 hrs by sulforhodamine B assay relative to control; conditions: IGROV-1, 48 h, read-out: Activity
SK-MEL-5 [11] = assay: Growth inhibition of human SK-MEL-5 cells assessed as cell growth at 10^-5 M incubated for 48 hrs by sulforhodamine B assay relative to control; conditions: SK-MEL-5, 48 h, read-out: Activity
MDA-MB-468 = assay: Growth inhibition of human MDA-MB-468 cells assessed as cell growth at 10^-6 M incubated for 48 hrs by sulforhodamine B assay relative to control; conditions: MDA-MB-468, 48 h, read-out: Activity
NCI-H460 [12] = assay: Growth inhibition of human NCI-H460 cells assessed as cell growth at 10^-8 M incubated for 48 hrs by sulforhodamine B assay relative to control; conditions: NCI-H460, 48 h, read-out: Activity
NCI-H460 [13] = assay: Growth inhibition of human NCI-H460 cells assessed as cell growth at 10^-4 M incubated for 48 hrs by sulforhodamine B assay relative to control; conditions: NCI-H460, 48 h, read-out: Activity
COLO 205 = assay: Growth inhibition of human COLO205 cells assessed as cell growth at 10^-5 M incubated for 48 hrs by sulforhodamine B assay relative to control; conditions: COLO 205, 48 h, read-out: Activity
M14 = assay: Growth inhibition of human M14 cells assessed as cell growth at 10^-5 M incubated for 48 hrs by sulforhodamine B assay relative to control; conditions: M14, 48 h, read-out: Activity
IGROV-1 [14] = assay: Growth inhibition of human IGROV1 cells assessed as cell growth at 10^-8 M incubated for 48 hrs by sulforhodamine B assay relative to control; conditions: IGROV-1, 48 h, read-out: Activity
786-0 = assay: Growth inhibition of human 786-0 cells assessed as cell growth at 10^-7 M incubated for 48 hrs by sulforhodamine B assay relative to control; conditions: 786-0, 48 h, read-out: Activity
SK-OV-3 = assay: Growth inhibition of human SKOV3 cells assessed as cell growth at 10^-6 M incubated for 48 hrs by sulforhodamine B assay relative to control; conditions: SK-OV-3, 48 h, read-out: Activity
OVCAR-5 = assay: Growth inhibition of human OVCAR5 cells assessed as cell growth at 10^-8 M incubated for 48 hrs by sulforhodamine B assay relative to control; conditions: OVCAR-5, 48 h, read-out: Activity
SNB-75 [15] = assay: Growth inhibition of human SNB75 cells assessed as cell growth at 10^-6 M incubated for 48 hrs by sulforhodamine B assay relative to control; conditions: SNB-75, 48 h, read-out: Activity
HT-29 = assay: Growth inhibition of human HT-29 cells assessed as cell growth at 10^-8 M incubated for 48 hrs by sulforhodamine B assay relative to control; conditions: HT-29, 48 h, read-out: Activity
EKVX = assay: Growth inhibition of human EKVX cells assessed as cell growth at 10^-8 M incubated for 48 hrs by sulforhodamine B assay relative to control; conditions: read-out: Activity
MDA-MB-231 = assay: Growth inhibition of human MDA-MB-231 cells assessed as cell growth at 10^-4 M incubated for 48 hrs by sulforhodamine B assay relative to control; conditions: MDA-MB-231, 48 h, read-out: Activity
KM12 [16] = assay: Growth inhibition of human KM12 cells assessed as cell growth at 10^-6 M incubated for 48 hrs by sulforhodamine B assay relative to control; conditions: KM12, 48 h, read-out: Activity

CCCCOc1nc2ccccc2cc1C1CNC(=O)c2ccccc2N1 (centres undefined)
growth at 100 µM (KM12 [1]): -2%
growth at 0.01 µM (NCI-H322M): 94%
growth at 10 µM (SNB-75 [2]): 13%
growth at 1 µM (SF-539): 85%
growth at 1 µM (MCF7): 62%
growth at 1 µM (SW-620): 66%
growth at 100 µM (Malme-3M [3]): -53%
growth at 10 µM (NCI-H460 [4]): 5%
growth at 100 µM (OVCAR-3): -92%
growth at 0.1 µM (BT-549): 104%
growth at 0.01 µM (SN12C): 97%
growth at 0.1 µM (SK-MEL-5 [5]): 100%
growth at 10 µM (KM12 [6]): 17%
growth at 10 µM (CAKI-1): 25%
growth at 10 µM (MDA-MB-435 [7]): -58%
growth at 100 µM (MDA-MB-435 [8]): -74%
growth at 0.1 µM (Malme-3M [9]): 92%
growth at 0.1 µM (NCI/ADR-RES): 97%
growth at 1 µM (IGROV-1 [10]): 86%
growth at 10 µM (SK-MEL-5 [11]): 10%
growth at 1 µM (MDA-MB-468): 66%
growth at 0.01 µM (NCI-H460 [12]): 101%
growth at 100 µM (NCI-H460 [13]): -73%
growth at 10 µM (COLO 205): -43%
growth at 10 µM (M14): 4%
growth at 0.01 µM (IGROV-1 [14]): 97%
growth at 0.1 µM (786-0): 100%
growth at 1 µM (SK-OV-3): 80%
growth at 0.01 µM (OVCAR-5): 98%
growth at 1 µM (SNB-75 [15]): 63%
growth at 0.01 µM (HT-29): 94%
growth at 0.01 µM (EKVX): 90%
growth at 100 µM (MDA-MB-231): -53%
growth at 1 µM (KM12 [16]): 85%
